Reference: patent US10945932B2, “Prebiotic oral care compositions containing carboxylic acids” (COLGATE-PALMOLIVE COMPANY, priority 2013, dated 2021)
Like-named read-outs stand apart in the source and are kept apart here.

Tests used:
[1] = test system: Actinomyces naeslundii; assay: Metabolic activity, Biolog phenotype microarray; type: cell-based; settings: A naeslundii
[2] = test system: Actinomyces viscosus; assay: Metabolic activity, Biolog phenotype microarray; type: cell-based; settings: A viscosus
[3] = test system: Aggregatibacter actinomycetemcomitans; assay: Metabolic activity, Biolog phenotype microarray; type: cell-based; settings: A actinomycetemcomitans
[4] = test system: Capnocytophaga sputigena; assay: Metabolic activity, Biolog phenotype microarray; type: cell-based; settings: C sputigena
[5] = test system: Fusobacterium nucleatum; assay: Metabolic activity, Biolog phenotype microarray; type: cell-based; settings: F nucleatum
[6] = test system: Porphyromonas gingivalis; assay: Metabolic activity, Biolog phenotype microarray; type: cell-based; settings: P gingivalis
[7] = test system: Prevotella intermedia; assay: Metabolic activity, Biolog phenotype microarray; type: cell-based; settings: P intermedia
[8] = test system: Streptococcus gordonii; assay: Metabolic activity, Biolog phenotype microarray; type: cell-based; settings: S gordonii
[9] = test system: Streptococcus mitis; assay: Metabolic activity, Biolog phenotype microarray; type: cell-based; settings: S mitis
[10] = test system: Streptococcus mutans; assay: Metabolic activity, Biolog phenotype microarray; type: cell-based; settings: S mutans
[11] = test system: Streptococcus salivarius; assay: Metabolic activity, Biolog phenotype microarray; type: cell-based; settings: S salivarius
[12] = test system: Streptococcus sanguinis; assay: Metabolic activity, Biolog phenotype microarray; type: cell-based; settings: S sanguinis
[13] = test system: Streptococcus sobrinus; assay: Metabolic activity, Biolog phenotype microarray; type: cell-based; settings: S sobrinus
[14] = test system: Tannerella forsythia; assay: Metabolic activity, Biolog phenotype microarray; type: cell-based; settings: T forsythia
[15] = test system: Veillonella parvula; assay: Metabolic activity, Biolog phenotype microarray; type: cell-based; settings: V parvula
[16] = test system: beneficial oral bacteria and pathogenic oral bacteria; assay: Metabolic activity, prebiotic effect over the whole panel; type: cell-based; settings: threshold value of 2
[17] = test system: Fusobacterium nucleatum; settings: F nucleatum, BHI
Description: (§1) Late exponential growth phase liquid cultures were prepared by transferring the respective bacterium from blood agar plates to BHI and overnight incubation at 37° C. in an anaerobic atmosphere for A. viscosus, V. parvula, F. nucleatum, P. gingivalis, P. intermedia, T forsythia, A. naeslundii, and C. sputigena, and in a 5% CO2 environment for S. salivarius, S. sanguinis, S. mitis, A. actinomycetemcomitans, S. mutans, S. sobrinus and S. gordonii. Overnight cultures were transferred to BHI and adjusted to a concentration of 1×10^7 CFU/ml (colony forming units per ml) by measuring the optical density at 600 nm (OD600) (BioRad SmartSpec 3000). For each strain, 200 μl of the bacterial suspension was added to a 96-well plate containing 20 μl of the respective carboxylic acids. Final concentrations of the carboxylic acids were set to 5, 10, 20 and 25 μmol/ml. […] Plates were incubated as previously described.
(§2) For each combination of bacterium/carboxylic acid, and for each of their respective controls (i.e. the particular bacterium in the nutritionally rich medium with no carboxylic acid), the optical density was measured at 630 nm (OD630) at 0 h, 24 h and 48 h (Thermo Scientific Multiskan Ascent). Additionally, the OD630 for combinations of bacterium/carboxylic acid grown in a 5% CO2 environment were also measured every hour between 0 h and 9 h.
(§3) The experiment was carried out on three different days (thus providing 3 biological replicas) and on each day the experiment was carried out in quadruple (thus providing 4 technical replicas) for each combination of bacterium with carboxylic acid and for each control. For each day and for each combination, the average (mean) of the values obtained (as detailed above) for the four technical replicas was calculated to provide a single value for each combination on each day.

[18] = test system: Porphyromonas gingivalis; settings: P gingivalis, BHI
Description: as §1, §2, §3

[19] = test system: Streptococcus mutans; settings: S mutans, BHI
Description: as §1, §2, §3

[20] = test system: Actinomyces naeslundii; settings: A naeslundii, BHI
Description: as §1, §2, §3

[21] = test system: Capnocytophaga sputigena; settings: C sputigena, BHI
Description: as §1, §2, §3

[22] = test system: Streptococcus gordonii; settings: S gordonii, BHI
Description: as §1, §2, §3

[23] = test system: Actinomyces viscosus; settings: A viscosus, BHI
Description: as §1, §2, §3

[24] = test system: Streptococcus salivarius; settings: S salivarius, BHI
Description: as §1, §2, §3

[25] = test system: Streptococcus sanguinis; settings: S sanguinis, BHI
Description: as §1, §2, §3

## O=C(O)CCC(=O)O [Succinic acid, succinic acid]
[1]; 24 hrs
  metabolic activity, OD at 492 nm divided by OD of control (control = 1): 0.9767
[1]; 48 hrs
  metabolic activity, OD at 492 nm divided by OD of control (control = 1): 0.9858
[2]; 24 hrs
  metabolic activity, OD at 492 nm divided by OD of control (control = 1): 0.9752
[2]; 48 hrs
  metabolic activity, OD at 492 nm divided by OD of control (control = 1): 1.0089
[3]; 24 hrs
  metabolic activity, OD at 492 nm divided by OD of control (control = 1): 1.1066
[3]; 48 hrs
  metabolic activity, OD at 492 nm divided by OD of control (control = 1): 1.2815
[4]; 24 hrs
  metabolic activity, OD at 492 nm divided by OD of control (control = 1): 1.0400
[4]; 48 hrs
  metabolic activity, OD at 492 nm divided by OD of control (control = 1): 1.0105
[5]; 24 hrs
  metabolic activity, OD at 492 nm divided by OD of control (control = 1): 0.8508
[5]; 48 hrs
  metabolic activity, OD at 492 nm divided by OD of control (control = 1): 0.8574
[6]; 24 hrs
  metabolic activity, OD at 492 nm divided by OD of control (control = 1): 0.8726
[6]; 48 hrs
  metabolic activity, OD at 492 nm divided by OD of control (control = 1): 0.9109
[7]; 24 hrs
  metabolic activity, OD at 492 nm divided by OD of control (control = 1): 1.0677
[7]; 48 hrs
  metabolic activity, OD at 492 nm divided by OD of control (control = 1): 1.1361
[8]; 24 hrs
  metabolic activity, OD at 492 nm divided by OD of control (control = 1): 0.7960
[8]; 48 hrs
  metabolic activity, OD at 492 nm divided by OD of control (control = 1): 0.8167
[9]; 24 hrs
  metabolic activity, OD at 492 nm divided by OD of control (control = 1): 0.9268
[9]; 48 hrs
  metabolic activity, OD at 492 nm divided by OD of control (control = 1): 0.8537
[10]; 24 hrs
  metabolic activity, OD at 492 nm divided by OD of control (control = 1): 0.8991
[10]; 48 hrs
  metabolic activity, OD at 492 nm divided by OD of control (control = 1): 0.8576
[11]; 24 hrs
  metabolic activity, OD at 492 nm divided by OD of control (control = 1): 0.9019
[11]; 48 hrs
  metabolic activity, OD at 492 nm divided by OD of control (control = 1): 0.8347
[12]; 24 hrs
  metabolic activity, OD at 492 nm divided by OD of control (control = 1): 0.9046
[12]; 48 hrs
  metabolic activity, OD at 492 nm divided by OD of control (control = 1): 0.8763
[13]; 24 hrs
  metabolic activity, OD at 492 nm divided by OD of control (control = 1): 0.8265
[13]; 48 hrs
  metabolic activity, OD at 492 nm divided by OD of control (control = 1): 0.8068
[14]; 24 hrs
  metabolic activity, OD at 492 nm divided by OD of control (control = 1): 0.9307
[14]; 48 hrs
  metabolic activity, OD at 492 nm divided by OD of control (control = 1): 0.9641
[15]; 24 hrs
  metabolic activity, OD at 492 nm divided by OD of control (control = 1): 2.8247
[15]; 48 hrs
  metabolic activity, OD at 492 nm divided by OD of control (control = 1): 2.2852
[16]; 24 hrs
  prebiotic effect (metabolic activity): exhibited prebiotic effects
[16]; 48 hrs
  prebiotic effect (metabolic activity): exhibited prebiotic effects
[17]; 5 μmol/ml
  extent of growth, maximal OD630 over 48 hr divided by maximal OD of control (control = 1): 0.9913
[17]; 10 μmol/ml
  extent of growth, maximal OD630 over 48 hr divided by maximal OD of control (control = 1): 1.0196
[17]; 20 μmol/ml
  extent of growth, maximal OD630 over 48 hr divided by maximal OD of control (control = 1): 0.2006
[17]; 25 μmol/ml
  extent of growth, maximal OD630 over 48 hr divided by maximal OD of control (control = 1): 0.1511
[18]; 5 μmol/ml
  extent of growth, maximal OD630 over 48 hr divided by maximal OD of control (control = 1): 1.0091
[18]; 10 μmol/ml
  extent of growth, maximal OD630 over 48 hr divided by maximal OD of control (control = 1): 0.8129
[18]; 20 μmol/ml
  extent of growth, maximal OD630 over 48 hr divided by maximal OD of control (control = 1): 0.4103
[18]; 25 μmol/ml
  extent of growth, maximal OD630 over 48 hr divided by maximal OD of control (control = 1): 0.4061
[19]; 5 μmol/ml
  extent of growth, maximal OD630 over 48 hr divided by maximal OD of control (control = 1): 0.8643
[19]; 10 μmol/ml
  extent of growth, maximal OD630 over 48 hr divided by maximal OD of control (control = 1): 0.8599
[19]; 20 μmol/ml
  extent of growth, maximal OD630 over 48 hr divided by maximal OD of control (control = 1): 0.8734
[19]; 25 μmol/ml
  extent of growth, maximal OD630 over 48 hr divided by maximal OD of control (control = 1): 0.8448
[20]; 5 μmol/ml
  extent of growth, maximal OD630 over 48 hr divided by maximal OD of control (control = 1): 0.9975
[20]; 10 μmol/ml
  extent of growth, maximal OD630 over 48 hr divided by maximal OD of control (control = 1): 0.5885
[20]; 20 μmol/ml
  extent of growth, maximal OD630 over 48 hr divided by maximal OD of control (control = 1): 0.2228
[20]; 25 μmol/ml
  extent of growth, maximal OD630 over 48 hr divided by maximal OD of control (control = 1): 0.1840
[21]; 5 μmol/ml
  extent of growth, maximal OD630 over 48 hr divided by maximal OD of control (control = 1): 0.9743
[21]; 10 μmol/ml
  extent of growth, maximal OD630 over 48 hr divided by maximal OD of control (control = 1): 0.7668
[21]; 20 μmol/ml
  extent of growth, maximal OD630 over 48 hr divided by maximal OD of control (control = 1): 0.6198
[21]; 25 μmol/ml
  extent of growth, maximal OD630 over 48 hr divided by maximal OD of control (control = 1): 0.4571
[22]; 5 μmol/ml
  extent of growth, maximal OD630 over 48 hr divided by maximal OD of control (control = 1): 0.8555
[22]; 10 μmol/ml
  extent of growth, maximal OD630 over 48 hr divided by maximal OD of control (control = 1): 0.7021
[22]; 20 μmol/ml
  extent of growth, maximal OD630 over 48 hr divided by maximal OD of control (control = 1): 0.2928
[22]; 25 μmol/ml
  extent of growth, maximal OD630 over 48 hr divided by maximal OD of control (control = 1): 0.1860
[23]; 5 μmol/ml
  extent of growth, maximal OD630 over 48 hr divided by maximal OD of control (control = 1): 0.5671
[23]; 10 μmol/ml
  extent of growth, maximal OD630 over 48 hr divided by maximal OD of control (control = 1): 0.3693
[23]; 20 μmol/ml
  extent of growth, maximal OD630 over 48 hr divided by maximal OD of control (control = 1): 0.1827
[23]; 25 μmol/ml
  extent of growth, maximal OD630 over 48 hr divided by maximal OD of control (control = 1): 0.1586
[24]; 5 μmol/ml
  extent of growth, maximal OD630 over 48 hr divided by maximal OD of control (control = 1): 1.0823
[24]; 10 μmol/ml
  extent of growth, maximal OD630 over 48 hr divided by maximal OD of control (control = 1): 0.8904
[24]; 20 μmol/ml
  extent of growth, maximal OD630 over 48 hr divided by maximal OD of control (control = 1): 0.2795
[24]; 25 μmol/ml
  extent of growth, maximal OD630 over 48 hr divided by maximal OD of control (control = 1): 0.2197
[25]; 5 μmol/ml
  extent of growth, maximal OD630 over 48 hr divided by maximal OD of control (control = 1): 0.7980
[25]; 10 μmol/ml
  extent of growth, maximal OD630 over 48 hr divided by maximal OD of control (control = 1): 0.6726
[25]; 20 μmol/ml
  extent of growth, maximal OD630 over 48 hr divided by maximal OD of control (control = 1): 0.2724
[25]; 25 μmol/ml
  extent of growth, maximal OD630 over 48 hr divided by maximal OD of control (control = 1): 0.2132
